These results are taken from EP4813463A2, “TYK2 INHIBITORS AND COMPOSITIONS AND METHODS THEREOF” (Lynk Pharmaceuticals Co. Ltd., priority 2023, dated 2024).

Values after ≈ are worked out from the molar mass of the structure shown. Where two headings read alike, the source gives them in different places.

Series [1] concerns Ba/F3-FL-TYK2-P760L cells. Kind of series: Anti-proliferative assay in engineered Ba/F3 cells (Cell-Titer Glo, 72 h). The format is cell-based. The conditions noted are these: Mus musculus, BaF3, 72 h, 72 h compound treatment, concentration that causes 50% growth inhibition, read-out: Baf3-FL-T2P760L. The method in brief:
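Ba/F3 cells carrying Tel-dimerization/JAK kinase fusion, IL-3-independent, in RPMI-1640 + 10% FBS; 9-point 3-fold dilutions from 20 µM (0.1% DMSO) added after 24 h, 72 h at 37 °C. Viability by Cell-Titer Glo ATP luminescence; % inhibition versus DMSO cells, blank-corrected, giving IC50.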

Series [2] can be described thus: Microsomal metabolic stability assay. The format is in vitro ADME. The conditions noted are these: human, liver microsomes, pH 7.4, 0.5 mg/mL microsomal protein, 1 µM test article, 2 mM NADPH. The method in brief: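 Test or control compound (1 µM) incubated with microsomes (0.5 mg/mL protein) in 100 mM potassium phosphate pH 7.4, 1.0 mM EDTA at 37°C, started with NADPH regenerating system (2 mM NADPH). Sampled at 0, 5, 15, 30, 45 min, acetonitrile-quenched, LC/MS/MS. T1/2 from ln %remaining vs time slope; CLint = 0.693/T1/2 per mg protein/mL.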

Another series has as its target T1, TYK2-JH2 domain (Homo sapiens, UniProt P29597).
T1 construct: JAK1-JH2 domain or TYK2-JH2 domain enzyme in assay buffer
Put plainly: Binding activity test for JH2 domain of TYK2 (Tb-antibody/tracer FRET). Conditions: for IC50: JH2 domain enzyme, 60 min at 25°C, then 4°C overnight, read-out: TYK2 JH2 Binding IC50; for JAK1/TYK2 selectivity: ratio of JAK1 JH2 to TYK2 JH2 binding IC50. The method in brief: (§1)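 Competitive TR-FRET binding: compounds dispensed as an 11-point 3-fold dilution series, then Tb-labelled antibody and tracer added to the JH2 protein system. Incubated at 25°C, then overnight at 4°C; FRET signal read on Envision and IC50 (nM) derived.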

Another series is described as follows: Caco-2 cell permeability. The format is in vitro ADME. Conditions: human, Caco-2, 10.0 µM, no p-gp inhibitor; for Papp A→B at 90 min, 10 µM: A to B; for Papp B→A at 90 min, 10 µM: B to A; for efflux ratio at 90 min, 10 µM: read-out: Efflux Ratio: Papp(B-A)/Papp(A-B). On the procedure:
Compounds permeability was evaluated using Caco-2 cell lines. HBSS buffer was used as transfer buffer. Appropriate dosing and receiver solutions were applied to the donor and receiver chambers to initiate the transport assay in apical to basolateral (A to B) or basolateral to apical (B to A) directions. Compounds were tested at 10.0 µM in the absence of p-gp inhibitor bidirectionally in duplicates. After incubation at 37°C for 90 mins, donor and receiver samples were analyzed by LC-MS/MS. The intestinal absorption potential was assessed using Papp value and efflux ratio.
A general note: Caco-2 monolayers are a common model of the intestinal barrier.

For a further series, the target named is T2, JAK1-JH2 domain (Homo sapiens, UniProt P23458).
T2 construct: JAK1-JH2 domain or TYK2-JH2 domain enzyme in assay buffer
T2 sequence (P23458 583-855 limits assumed): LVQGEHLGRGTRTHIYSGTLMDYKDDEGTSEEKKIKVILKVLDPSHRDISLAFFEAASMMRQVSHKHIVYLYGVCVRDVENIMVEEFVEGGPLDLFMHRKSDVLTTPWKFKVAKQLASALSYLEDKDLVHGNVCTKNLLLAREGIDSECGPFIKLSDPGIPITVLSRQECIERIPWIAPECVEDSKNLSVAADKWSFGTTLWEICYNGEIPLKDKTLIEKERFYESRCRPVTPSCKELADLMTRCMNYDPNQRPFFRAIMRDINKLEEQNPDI
Put plainly: Binding activity test for JH2 domain of JAK1 (Tb-antibody/tracer FRET). Conditions: JH2 domain enzyme; 60 min at 25°C, then 4°C overnight; read-out: JAK1 JH2 Binding IC50. The method in brief: as §1

A further series can be described thus: Kinetic solubility. The conditions noted are these: phosphate buffer, pH 7.4, aqueous buffer, kinetic from dmso stock, 100 mM pH 7.4 phosphate buffer, 1% DMSO, room temperature, read-out: Kinetics Solubility_PBS7.4. The format is physicochemical. On the procedure: Aliquots of 8 µL of reference and test compound stock solutions (10 mM/5 mM) are added into 792 µL of 100 mM pH 7.4 phosphate buffer. The final DMSO concentration is 1%. Sample tubes are shaken for 2 hours at 1000 rpm at room temperature. Samples are centrifuged at 12000 rpm for 10 min to precipitate un-dissolved particles. And transfer the supernatants to a new tube or plate. Add 5 µL of samples (no diluted, 10 times diluted, and 100 times diluted) and standard curve samples to 95 µL of ACN containing IS for LC-MS/MS analysis. Kinetic Solubilities Values of Exemplary Compounds

Series [3] in a line: Brain pharmacokinetic studies in rats. The format is in vivo, Sprague-Dawley rats. On the procedure: Pharmacokinetic profiles of test articles were evaluated in fasted Sprague-Dawley rats. Different kinds of formulations were designed to ensure test articles fully dissolved and wouldn't precipitate in 1:10 SGF or FaSSIF dilution. Typically, Rats were dosed with 3 mg/kg and 5 mg/kg by intravenous injection and oral gavage, respectively. The animal was restrained manually at the designated time points, approximately 150 µL of blood sample was collected via jugular vein for serial bleeding into K2EDTA tubes. The blood samples were maintained in wet ice first and centrifuged to obtain plasma (2000g, 4°C, 5 min) within 30 minutes post sampling. Anesthetizing the rat with the Isoflurane vaporizer to 2%~3% and place its back on the operation table. Spread the animal limbs and pin the limbs on the operation table. Make a cut along the sternum about 4cm long, low enough to expose the sternum's end. Expose the heart and use a 25-gauge needle connected with a 20 mL syringe filled with 20 mL of cold saline to pierce the left ventricle. Maintain the placement of the needle, and slowly push the syringe plunger to wash the brain with saline. The perfusion will be finished within about 2 min and then take the brain out of the body carefully without damaging the tissue. Dry the tissue on filtrate paper, which should be placed on ice, and then weigh the brain tissue and store at -70 °C and analyzed by LC/MS/MS for quantification. PK parameter values, including, but not necessarily limited to, the maximum plasma concentrations (Cmax), and the area under the plasma concentration vs. time curve (AUC) from time zero to 24-hour (AUC0-24h) were determined using WinNonlin program. Table 13. Systemic Pharmacokinetic Parameters in Sprague-Dawley Rats

The subject of another series is TYK2 pathway. Kind of series: IFN-γ release in NK92 cells stimulated by IL-12 (ELISA). The format is cell-based. The conditions noted are these: IL-12 2.5ng/mL stimulation 15hrs, IFN-γ in supernatant by ELISA. On the procedure:
IFN-γ Release in NK92 Cells Stimulated by IL-12
Purpose: To evaluate the inhibition activity of TYK2 inhibitors in NK92 cells on TYK2 pathway through ELISA method.
Procedure: 1) Seeding NK92 cells into 96-well plate, cell density is 1.5E5 cells/well, 100uL/well; 2)Add prepared test articles into indicated wells, 50uL/well, and continue incubate for 1h, at 37°C; 3) After compound treatment, add 50uL/well IL-12 into indicated wells, final concentration of IL-12 is 2.5ng/mL; 4)Incubate cytokine stimulated cells at 37°C for another 15hrs in CO2 incubator; 5) After cytokine stimulation, transfer culture supernatant into a new plate and centrifuge for 5min at 350x g, and detect IFN-γ concentration in the supernatant with ELISA kit; 6) Data analysis with GrapdPad Prism6.0 software. Table 5. IC50 Values of Exemplary Compounds on TYK2 Pathway

The subject of the next series is pSTAT1. Put plainly: Phosphorylation inhibition of STAT in human whole blood (IFN-alpha stimulated, flow cytometry). Conditions: T-cell, 20 min, IFN-alpha stimulation 20 mins, CD3 T cells, read-out: pSTAT1 inhibition in hWB (IC50). The format is cell-based. The protocol: The inhibitory potential of test articles in human whole blood assay was evaluated by the method of flow cytometry.
IFN-alpha will activate JAK1 and TYK2 kinase in T cells by binding to IFN receptors, and then lead to phosphorylation of STAT1 and STAT2. The phosphorylated STAT1 enter nuclear and promote transcription and expression of IFN-gamma. To evaluate the efficacy of TYK2i in T cells, freshly collected human whole blood will be stimulated with certain unit of human IFN-alpha (Universal Type I IFN(1MU), R&D, 11200-2) for 20 mins in incubator. After stimulation, fix cells with Phosflow™ Fix Buffer I (BD, 557870), and then collect fixed cells by centrifugation (500 g, 8min). Wash cells once with pre-cooled PBS, and then permeabilize cells with cold Perm Buffer III buffer (BD, 558050) for 45 mins on ice. Collect cells by centrifugation (600 g, 8min) and washed twice with cold PBS. Stain cells with anti-human CD3(FITC Mouse Anti-Human CD3, BD, 555332) and anti-pSTAT1_Y701(Alexa Fluor 647 Mouse Anti-Stat1 (pY701), BD, 612597) antibodies. Detect pSTAT1 by flow cytometry (CytoFlex S) and analyze data with FlowJo and GraphPad Prism 8 software. IC50 values of test articles were determined using 4- parameter logistic equation.
(In general: A flow cytometer gives signals particle by particle.)

T1 sequence (P29597 589-875 limits assumed): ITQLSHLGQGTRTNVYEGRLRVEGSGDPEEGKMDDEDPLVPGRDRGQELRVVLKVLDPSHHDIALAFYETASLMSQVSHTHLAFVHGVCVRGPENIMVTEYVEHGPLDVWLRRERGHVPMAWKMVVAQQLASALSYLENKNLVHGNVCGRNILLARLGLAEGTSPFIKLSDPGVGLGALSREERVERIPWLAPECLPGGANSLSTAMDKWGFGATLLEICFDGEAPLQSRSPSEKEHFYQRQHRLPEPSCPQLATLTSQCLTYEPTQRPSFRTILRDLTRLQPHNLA

Regarding `[2H]C([2H])([2H])NC(=O)c1cnc(NC(=O)C2CC2)cc1Nc1cnn2ccc(C(C)O)c(OC)c12` (stereo not drawn) [Example 23, 6-(Cyclopropanecarboxamido)-4-((5-(1-hydroxyethyl)-4-methoxypyrazolo[1,5-a]pyridin-3-yl)amino)-N-(methyl-d3)nicotinamide], the IC50 in series [1] stood at 166 nM. For the same molecule, the microsomal CLint at 1 µM in series [2] (read-out: Human LM Clint) turned out to be 0.17 µL/min/mg. The half-life at 1 µM in series [2] (read-out: Human LM T1/2) worked out at 5.51 days. On TYK2-JH2 domain, the IC50 was found to be 0.185 nM and the JAK1/TYK2 selectivity is given as 72.7. For the same molecule, in the series “Caco-2 cell permeability”, the Papp A→B at 90 min, 10 µM turned out to be 0.46 ×10⁻⁶ cm/s; the basolateral-to-apical permeability (Papp B→A) at 90 min, 10 µM was 37.6 ×10⁻⁶ cm/s; the efflux ratio at 90 min, 10 µM came out at 82.7. For the same molecule, at JAK1-JH2 domain, the IC50 came out at 13.5 nM.

For `[2H]C([2H])([2H])NC(=O)c1cnc(NC(=O)C2CC2)nc1Nc1cnn2ccc([C@H](O)C(F)(F)F)c(OC)c12` [Example 33, (S)-2-(cyclopropanecarboxamido)-4-((4-methoxy-5-(2,2,2-trifluoro-1-hydroxyethyl)pyrazolo[1,5-a]pyridin-3-yl)amino)-N-(methyl-d3)pyrimidine-5-carboxamide], the IC50 in series [1] was 16 nM. In “Kinetic solubility”, the solubility kinetic at 2 h amounted to 59.4 µM (≈ 28.6 µg/mL). On TYK2-JH2 domain, the IC50 was found to be 0.082 nM and the JAK1/TYK2 selectivity is listed as 418.3. In “Caco-2 cell permeability”, the Papp A→B at 90 min, 10 µM was 0.39 ×10⁻⁶ cm/s; the Papp B→A at 90 min, 10 µM is 46.5 ×10⁻⁶ cm/s; the efflux ratio at 90 min, 10 µM was found to be 121. The IC50 at JAK1-JH2 domain was determined as 34.3 nM.

Turning to `COC(=O)c1cnc(NC(=O)C2CC2)cc1Nc1cnn2ccc([C@H](OC)C(F)(F)F)c(OC)c12` [Example 42, Methyl (S)-6-(cyclopropanecarboxamido)-4-((4-methoxy-5-(2,2,2-trifluoro-1-methoxyethyl)pyrazolo[1,5-a]pyridin-3-yl)amino)nicotinate], the IC50 in series [1] was determined as 104 nM; at TYK2-JH2 domain it was 0.202 nM; at JAK1-JH2 domain it was 79 nM. The half-life in series [3] (Sprague-Dawley, rat, brain, rats, iv, 3 mg/kg, solution) is 15 min; in series [3] (Sprague-Dawley, rat, systemic (plasma), rats, iv, 3 mg/kg, solution), 20.4 min. Moreover, in series [3] (Sprague-Dawley, rat, brain, rats, iv, 3 mg/kg, solution, read-out: Brain AUC/Systemic AUC), the Kp came to 1.99. In addition, the AUC in [3] (Sprague-Dawley, rat, systemic (plasma), rats, iv, 3 mg/kg, solution, read-out: AUC) amounted to 646 ng·h/mL; in [3] (brain, rats, iv, 3 mg/kg, solution), 1286 ng·h/g. Moreover, the “brain exposure in Rats” value in series [3] (result in words) is reported as “good brain exposure”. Also, at TYK2-JH2 domain, the JAK1/TYK2 selectivity was 391.2.

As to `CNC(=O)c1cnc(NC(=O)C2CC2)cc1Nc1nn(C)c2cccc(OC)c12` [Example 100, 6-(Cyclopropanecarboxamido)-4-((4-methoxy-1-methyl-1H-indazol-3-yl)amino)-N-methylnicotinamide], the IC50 was 505 nM in series [1], 86.8 nM in the series with TYK2 pathway, 0.97 nM at TYK2-JH2 domain and 113 nM on JAK1-JH2 domain. Besides, the JAK1/TYK2 selectivity on TYK2-JH2 domain came out at 116.4.

As for `CCC(=O)c1cnc(NC(=O)C2CC2)cc1Nc1ccn2nccc2c1OC` [Example 195, N-[4-[(4-Methoxypyrazolo[1,5-a]pyridin-5-yl)amino]-5-propanoyl-2-pyridyl]cyclopropanecarboxamide, reference compound], the IC50 is 329 nM in series [1]; 1500 nM in the series with TYK2 pathway; 2.96 nM at TYK2-JH2 domain; 67.1 nM at JAK1-JH2 domain; more than 5 µM in the series with pSTAT1. For the same molecule, the JAK1/TYK2 selectivity at TYK2-JH2 domain is recorded as 22.68.

Consider `CCC(=O)c1cnc(NC(=O)C2CC2)cc1Nc1ccc2cn[nH]c2c1OC` [Example 196, N-(4-((7-Methoxy-1H-indazol-6-yl)amino)-5-propionylpyridin-2-yl)cyclopropanecarboxamide, reference compound], for which the IC50 is 923 nM with TYK2 pathway, 3.93 nM at TYK2-JH2 domain, 31.6 nM on JAK1-JH2 domain and more than 10 µM in the series with pSTAT1. For the same molecule, the JAK1/TYK2 selectivity on TYK2-JH2 domain is on record as 8.04.

With `CCC(=O)c1cnc(NC(=O)C2CC2)cc1Nc1ccc2[nH]cnc2c1OC` [Example 197, N-[4-[(4-Methoxy-1H-benzimidazol-5-yl)amino]-5-propanoyl-2-pyridyl] cyclopropanecarboxamide, reference compound], the IC50 came to 426 nM in [1], 515 nM in the series with TYK2 pathway, 2.72 nM at TYK2-JH2 domain and 17.4 nM on JAK1-JH2 domain. The JAK1/TYK2 selectivity on TYK2-JH2 domain stood at 6.41.

Broadly, the Papp A→B is the apparent permeability from the apical to the basolateral side of a cell layer. Read a high Papp A→B as ready permeation. A word on the Papp B→A: it is how fast a substance crosses the layer from the basolateral side.
